Source: patent publication US20250000834A1, “COMPOSITIONS AND METHODS FOR TARGETING GPCR FOR THE PREVENTION AND TREATMENT OF PAIN” (Duke University, priority 2021, published 2025)

Experiments:
[1] = molecular target: T1, hGPR37L1 (Homo sapiens, UniProt O60883); assay: Beta-arrestin assay (PathHunter hGPR37L1 CHO-K1); assay type: cell-based; conditions: hGPR37L1 ChoK1 cells
T1 sequence (O60883 26-481): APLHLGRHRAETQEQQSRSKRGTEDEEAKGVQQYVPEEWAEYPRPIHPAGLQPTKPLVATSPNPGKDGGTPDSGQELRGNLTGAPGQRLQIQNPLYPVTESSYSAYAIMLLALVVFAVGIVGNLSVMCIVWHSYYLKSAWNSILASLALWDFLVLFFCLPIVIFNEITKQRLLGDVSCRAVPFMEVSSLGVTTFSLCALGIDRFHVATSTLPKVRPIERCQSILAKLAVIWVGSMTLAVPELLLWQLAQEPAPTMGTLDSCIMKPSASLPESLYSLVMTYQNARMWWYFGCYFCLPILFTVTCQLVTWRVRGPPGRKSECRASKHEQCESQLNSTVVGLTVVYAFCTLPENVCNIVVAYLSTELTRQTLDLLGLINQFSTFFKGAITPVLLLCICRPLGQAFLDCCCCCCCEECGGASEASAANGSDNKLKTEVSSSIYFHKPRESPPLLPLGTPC
Protocol: Beta-arrestin assay: To screen for GPR37L1 ligands, the PathHunter® eXpress GPR37L1 CHO-K1 kit was purchased from Eurofins Discoveryone™ (DiscoverX Solutions for Drug Discovery, Fremont, CA; Cat #93-0378E2ACP1M). CHO-K1 cells express human GPR37L1 and were grown in 96-well plates for 48 hours. Lipid compounds were incubated with the ChoK1 cells for 1 hour at 37° C., and GPR37L1 activation was determined by measuring chemiluminescence using the beta-arrestin 2 (β-arrestin) detection kit (DiscoverX Solutions for Drug Discovery, Fremont, CA). The luminescent activity was measured using an Infinite F200 Pro Illuminometer (Tecan Trading AG, Switzerland).
Eight different concentrations of compounds ranging from 0.1 nM to 100 nM were tested.

[2] = molecular target: T1, hGPR37L1; assay: Lipid overlay assay with lysates of hGPR37L1-transfected HEK293 cells; assay type: binding; design: expressed in transfected cells; host or cells: HEK293 Flp-In cells
Protocol: Lipids overlay assay: Lipids membrane coating and protein overlay assay were performed as previously described (S. Dowler, et al., Protein lipid overlay assay. Sci STKE 2002, p 16 (2002)). […] Compound-coated membranes were dried and blocked with 1% BSA. The coated membranes were incubated with lysates obtained from hGPR37L1-transfected HEK293 cells or mouse DRG lysate from WT or Gpr37l1 KO mice for 2 hours, followed by detection using an anti-GRP37L1 antibody (Bioss (Woburn, MA), Rabbit, 1:1000, #bs-15390R) or anti-flag antibody (Cell Signaling Technology (Danvers, MA), Rabbit, 1:1000, #14793). Blots were further incubated with an HRP-conjugated secondary anti-rabbit antibody (Jackson ImmunoResearch Laboratories (West Grove, PA), raised in donkey, 1:5000), developed in ECL solution (Pierce Biotechnology, Waltham, MA), and the signal was visualized from ChemiDoc XRS (Bio-Rad, Hercules, CA). The signal Intensity was quantified by Image J software (NIH).
A lipid overlay assay was conducted to reveal any possible binding of these lipid mediators to GPR37L1. hGPR37L1 was FLAG-tagged and expressed in HEK293 cells after hGPR37L1 cDNA transfection; the expressed protein detectable by anti-FLAG antibody (schematic not shown; see U.S. Prov. No. 63/270,198, FIG. 3A).

[3] = molecular target: T1, hGPR37L1; assay: Lipid-coated bead pull-down assay with hGPR37L1-expressing cells; assay type: binding; design: expressed in transfected cells; host or cells: HEK293 Flp-In cells; conditions: Western blot
Protocol: Lipid pull-down assay: Isolated membrane proteins were pre-adsorbed to uncoated control agarose beads (Vector Laboratories, Burlingame, CA); the unbound fraction was collected and incubated 24 hrs at 4° C. with lipid-coated agarose beads (S. Bang et al., GPR37 regulates macrophage phagocytosis and resolution of inflammatory pain. J Clin Invest 128, 3568-3582 (2018)). After extensive washing, bound proteins were eluted from the lipid-coated beads, suspended in Laemmli buffer containing 2% SDS (w/v) and 0.3-M β-mercaptoethanol (Sigma-Aldrich, St. Louis, MO), and heated 5 min at 95° C. to dissolve proteins before separation on 4-20% polyacrylamide/SDS gels as outlined above. The lysate proteins were detected by western blot.
Western blot: GPR37L1 proteins were isolated from transfected cells, lipid pull-down beads, and mouse DRG. The cells were placed on ice, washed with ice-cold phosphate-buffered saline (PBS), and harvested with ice-cold RIPA buffer (Sigma-Aldrich, St. Louis, MO) with Protease Inhibitor Cocktail Tablet (pH 7.4) (Roche Diagnostics, Indianapolis, IN). The cell lysates were centrifugated for removing insoluble debris and were calculated by BCA assay for detection of protein level, and the supernatant was mixed with 4× Laemmli buffer (Bio-Rad, Hercules, CA) and boiling. Protein samples were […] on 4-15% gradient SDS-PAGE gel (Bio-Rad, Hercules, CA) and blotted on PVDF membrane (Bio-Rad, Hercules, CA). Ponceau S staining was used for the detection of total proteins. The primary antibody was incubated with PBS+1% BSA at 4° C. overnight. We used the following primary antibodies: anti-GPR37L1 antibody (Bioss (Woburn, MA), Rabbit, 1:1000, #bs-15390R); anti-GAPDH antibody (Proteintech (Rosemont, IL), mouse, 1:2000, #60004); and anti-flag antibody (Cell Signaling Technologies (Danvers, MA), Rabbit, 1:1000, #14793). Blots were further incubated with an […] secondary anti-rabbit antibody (Jackson ImmunoResearch Laboratories (West Grove, PA), donkey, 1:5000), developed in ECL solution (Pierce Biotechnology, Appleton, WI)), and visualized in ChemiDoc XRS (Bio-Rad, Hercules, CA). Protein signal intensity was quantified by Image J software (NIH).
Next, a lipid-coated bead pull-down assay with hGPR37L1-expressing cells was used to confirm whether MaR1 would interact with GPR37L1 protein selectively. […] The right molecule size of GPR37L1 (˜50 kDa) was also validated by the anti-FLAG antibody (data not shown; see U.S. Prov. No. 63/270,198, FIG. 3E).

With `CC/C=C\C/C=C\C[C@H](O)\C=C/C=C/C=C/[C@H](O)C/C=C\CCC(=O)O` [MaR1, Maresin 1] the “potency relative to TX14 in β-arrestin 2 assay” value [1] was 10 times, the β-arrestin signaling ([1]; 0.1 nM to 100 nM, n=6) was 3.64 fold increase and the EC50 ([1]; n=6, read-out: EC50 of β-arrestin response) was 0.97 nM. For the same compound, the “binding signal in lipid overlay assay” value ([2]; cell lysate from control mock transfection) was “no positive signal”, the “binding signal in lipid overlay assay” value ([2]; lysate of hGPR37L1 (FLAG) transfected HEK293 cells, anti-FLAG detection) was “specific binding signal” and the “GPR37L1 binding in lipid-coated bead pull-down extracts” value [3] was “Strong GPR37L1 binding”.
